The experiment concerns the target 17β-HSD1 (Homo sapiens (Human), UniProt P14061). Briefly: 17β-HSD1 test assay (recombinant protein from Sf9 insect cells, 3H-estrone/NADPH). It is filed as biochemical. Particulars: for inhibition at 1 µM: read-out: HSD 1 μM (% inhibition of HSD1), inhibitor 1 μM; for inhibition at 0.1 µM: read-out: HSD1 100 nM (% inhibition), inhibitor 100 nM. The protocol:
Recombinant protein obtained from Sf9 insect cells (0.1 μg/ml) is incubated with 20 mM KH2PO4, pH 7.4, 30 nM ^3H-estrone and 1 mM NADPH for 30 min at RT in the presence of the potential inhibitor in a concentration of 1 μM or 100 nM. The stock solutions of the compounds are prepared in DMSO (dimethylsulfoxide) so that the final concentration of DMSO in the sample is 1%. After the prescribed incubation time, the reaction is quenched by adding trichloroacetic acid (10% final concentration). The samples are centrifuged in microtitration plates at 400 rpm for 10 min, and the supernatants are charged on a reversed-phase HPLC equipped with a Waters Symmetrie C18 column and Waters Sentry Guard column. The isocratic HPLC run is performed at RT with a flow rate of 1 ml/min and acetonitrile/water 48:52 as the eluent. The radioactivity was measured by means of a Packard Flow Scintillation Analyzer. […]

Sequence of 17β-HSD1 (P14061 whole entry): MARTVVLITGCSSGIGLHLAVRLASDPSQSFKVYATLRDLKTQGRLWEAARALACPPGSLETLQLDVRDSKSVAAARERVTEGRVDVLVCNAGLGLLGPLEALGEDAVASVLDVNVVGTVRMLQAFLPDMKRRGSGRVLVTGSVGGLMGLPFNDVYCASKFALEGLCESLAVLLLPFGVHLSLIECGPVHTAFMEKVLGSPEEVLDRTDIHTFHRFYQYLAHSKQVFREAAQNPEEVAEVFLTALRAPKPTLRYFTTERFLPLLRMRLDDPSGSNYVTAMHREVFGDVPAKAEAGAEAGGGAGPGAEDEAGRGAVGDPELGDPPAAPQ

`Oc1cccc(-c2cc3cc(O)ccc3[nH]2)c1` [Compound 1, 2-(3-Hydroxyphenyl)-1H-indol-5-ol]: the inhibition at 1 µM was less than 10% and the inhibition at 0.1 µM was less than 10%.
In the case of `Oc1ccc2cc(-c3ccccc3)ccc2c1` [Compound 2, 6-Phenylnaphthalene-2-ol], the inhibition at 1 µM is less than 10% and the inhibition at 0.1 µM is less than 10%.
Consider `Oc1cccc(-c2ccc3ccccc3c2)c1` [Compound 3, 3-Naphthalene-2-ylphenol], for which the inhibition at 1 µM came to 61% and the inhibition at 0.1 µM amounted to 26%.
In the same order, the values of `Oc1ccc2cc(-c3cccnc3)ccc2c1` [Compound 4, 3-(6-hydroxy-2-naphthyl)pyridine] are 31.6% and less than 10%.
Take `Oc1ccc2cc(-c3ccsc3)ccc2c1` [Compound 5]: the inhibition at 1 µM was less than 10% and the inhibition at 0.1 µM was less than 10%.
Take `Oc1ccc2cc(-c3cccs3)ccc2c1` [Compound 6]: the inhibition at 1 µM was less than 10% and the inhibition at 0.1 µM was less than 10%.
With `O=C(O)c1cccc(-c2ccc3cc(O)ccc3c2)c1` [Compound 7, 3-(6-hydroxy-2-naphthyl)benzoic acid], the inhibition at 1 µM came to 75.8% and the inhibition at 0.1 µM stood at 36.3%.
The like results for `O=C(O)c1ccc(-c2ccc3cc(O)ccc3c2)cc1` [Compound 8, 4-(6-hydroxy-2-naphthyl)benzoic acid] were, in that order, less than 10% and less than 10%.
The like results for `CC(=O)Nc1cccc(-c2ccc3cc(O)ccc3c2)c1` [Compound 9, N-[3-(6-hydroxy-2-naphthyl)phenyl]acetamide] were, in that order, 18.5% and less than 10%.
The like results for `OCc1cccc(-c2ccc3cc(O)ccc3c2)c1` [Compound 10, 6-[3-(hydroxymethyl)-phenyl]-2-naphthol] were, in that order, less than 10% and less than 10%.
Take `OCc1ccc(-c2ccc3cc(O)ccc3c2)cc1` [Compound 11, 6-[4-(hydroxymethyl)phenyl]-2-naphthol]: the inhibition at 1 µM amounted to 12.9% and the inhibition at 0.1 µM is less than 10%.
The like results for `Oc1cccc(-c2ccc3cc(O)ccc3n2)c1` [Compound 12, 2-(3-Hydroxyphenyl)quinolin-6-ol] were, in that order, 56.9% and 24%.
`Oc1cccc(-c2cnc3ccccc3c2)c1` [Compound 13, 3-(Quinolin-3-yl)phenol]: the inhibition at 1 µM is less than 10% and the inhibition at 0.1 µM is less than 10%.
Consider `Oc1ccc(-c2cnc3ccccc3c2)cc1` [Compound 14, 4-(Quinolin-3-yl)phenol], for which the inhibition at 1 µM is less than 10% and the inhibition at 0.1 µM is less than 10%.
With `Oc1ccc(-c2cnc3cc(O)ccc3c2)cc1` [Compound 15, 3-(4-Hydroxyphenyl)quinolin-7-ol], the inhibition at 1 µM was less than 10% and the inhibition at 0.1 µM is less than 10%.
`Oc1cccc(-c2cnc3cc(O)ccc3c2)c1` [Compound 16, 3-(3-Hydroxyphenyl)quinolin-7-ol]: the inhibition at 1 µM is 56.9% and the inhibition at 0.1 µM was 24%.
The like results for `Oc1cncc(-c2ccc3cc(O)ccc3c2)c1` [Compound 17, 5-(6-Hydroxynaphthalene-2-yl)pyridin-3-ol] were, in that order, 57.7% and 30.3%.
The like results for `Oc1ccc2cc(-c3ccccc3O)ccc2c1` [Compound 18, 6-(2-Hydroxyphenyl)-2-naphthol] were, in that order, less than 10% and less than 10%.
In the same order, the values of `Oc1ccc(-c2ccc3cc(O)ccc3c2)cc1` [Compound 20, 6-(4-Hydroxyphenyl)-2-naphthol] are less than 10% and less than 10%.
`Oc1ccc(-c2ccc3c(O)cccc3c2)cc1` [Compound 21, 6-(4-Hydroxyphenyl)-1-naphthol]: the inhibition at 1 µM was less than 10% and the inhibition at 0.1 µM was less than 10%.

Usually inhibition stands for the relative decrease from the control value, in per cent.

Source of the values: patent publication US8546392B2, “17Beta-hydroxysteroid dehydrogenase type 1 inhibitors for the treatment of hormone-related diseases” (Universitaet des Saarlandes, priority 2008, dated 2013).
